Results as given in US20240245696A1, “INHIBITORS OF DNA PK AND USES THEREOF” (BioVentures, LLC, priority 2017, published 2024).
Entries after “also recorded” stand apart in the source; their conditions may differ.

How the values were obtained:
IL-2 [1] = test: qPCR of IL-2 expression in stimulated Jurkat cells; assay type: cell-based, human; details: PHA+PMA stimulation
Method: Evaluation of PD-1 and IL-2 expression: The effect of NU7441 on the expression of PD-1, a protein with immunosuppressant function, and IL-2 was examined in Jurkat cells following stimulation with PHA+PMA and treatment with the inhibitor NU7441. qPCR analysis was performed using primers specific for PD1 and IL-2 sequences.

DNA-PKcs = DNA-PKcs (Homo sapiens, UniProt P78527); test: Western blot of phosphorylated DNA-PKcs (s2056) in activated Jurkat cells; assay type: cell-based; parameters: host or cells: Jurkat cells; details: Jurkat activated with PMA+PHA
Method: Cell Culture: Human peripheral blood mononuclear cells (PBMC,) and Jurkat cells were purchased from ATCC (PCS-800-011, Manassas, VA). Cells were maintained at 37° C. in a humidified atmosphere composed of 5% CO2. […] Both Jurkat cells and PBMC were stimulated with PHA (50 ng/mL) and PMA (1 μg/mL) for 24 hours prior to harvesting for IL-2 detection or 6 hours prior for western blot analysis. The NU7441 DNA-PKcs inhibitor was added at varying concentrations at the time of stimulation.
Cell lysis and nuclear extract: Cells were washed with cold PBS twice and centrifuged at 5000 rpm for 5 minutes. For the nuclear extract, pellets were suspended with 800 μL of 10 mN HEPES lysis buffer (10 mM HEPES at pH 7.9, 10 mM KCl, 1 mM DTT, and 1× protease and phosphatase inhibitor) and incubated on ice for 15 minutes. 50 μL of NP-40 (10% in water) was added and the pellets were mixed for 10 seconds. Lysates were centrifuged for 5 minutes at 4° C. at 13,000 rpm. The supernatant solution which is containing the cytosolic fraction was discarded and the pellets were resuspended in 20 mM HEPES lysis buffer (20 mM HEPES at pH 7.9, 0.4 M NaCl, 1 mM DTT, and 1× protease, and phosphatase inhibitor) and incubated on ice for 15 minutes with intermittent mixing. Lysates were centrifuged for 10 minutes at 4° C. at 13,000 rpm. […]

Ca^2+ = test: Calcium ion measurement in Jurkat cell lysates; assay type: cell-based, human; details: Jurkat cell lysates following activation with PMA+PHA
Method: Measurements of calcium ions: Intracellular concentration of calcium ions was measured by Calcium Detection Assay Kit from Abcam (Cambridge, MA). The manufacturer's protocols were followed. Briefly, Jurkat cells (2 million cells/mL) were lysed using cold PBS with 0.1% NP-40. The cell lysates were diluted 10 times before use. After following the assay protocol, the absorbance of each sample was read at 575 nm using the plate reader.

Th1 T cells = test: qPCR on T cell markers, Th1 differentiation of naïve CD4+ T cells; assay type: cell-based; details: naïve CD4+ T cells from mouse spleens
Method: (§1) qPCR on T cell markers: Naïve CD4+ T cells were isolated by standard methods from the spleens of Balbc mice. T cells were grown in culture and treated with cytokines specific for differentiate into Th1 and Th17 subtypes. Additionally, T cells were cultured with NU7441 and FK506. qPCR was performed looking at the following markers: Batf3, RORyt, IL17, IL22, TGFBeta, Lymphotoxin, T-Bet.

PBMC = test: Cell viability assay (CELLTITER 96 AQUEOUS One) in PBMC; assay type: cell-based, human; details: various concentrations, 48 hours
Method: Cell Culture: Human peripheral blood mononuclear cells (PBMC,) and Jurkat cells were purchased from ATCC (PCS-800-011, Manassas, VA). Cells were maintained at 37° C. in a humidified atmosphere composed of 5% CO2. Jurkat cells were cultured in RPMI 1640 medium which was supplemented with 10% FCS and human PBMC was cultured in RPMI 1640 medium which was supplemented with 10% FCS and pen/strep. Both Jurkat cells and PBMC were stimulated with PHA (50 ng/mL) and PMA (1 μg/mL) for 24 hours prior to harvesting for IL-2 detection or 6 hours prior for western blot analysis. The NU7441 DNA-PKcs inhibitor was added at varying concentrations at the time of stimulation. Cell viability assay: Cell viability assay was performed using Promega CELLTITER 96 AQUEOUS One Solution Cell Proliferation Assay (Madison, WI) and following the manufacturer's protocol. Briefly, 100 μL of PBMC or Jurkat cells were plated in a 96-well plate and treated with various concentration of NU7441 for 48 hours. CELLTITER solution (20 μL/100 μL of cell suspension) was added to the cells and the plate was incubated for 3 hours at 37° C. and the absorbance at 490 nm was recorded using SynergyHTX (BioTek, Winooski, VT) plate reader.

IL-2 [2] = test: Secreted IL-2 ELISA, Jurkat cells stimulated with anti-CD28/CD3 dynabeads; assay type: cell-based, human; details: anti-CD28/CD3 dynabeads 1:1 ratio, 24 hours
Method: (§2) Detection of secreted IL-2: Secreted IL-2 was detected by Human IL-2 ELISA Kit from Thermo Scientific (Waltham, MA). The manufacturer's protocol was followed. Prior to harvesting, cells were treated with PHA (50 ng/ml) and PMA (1 μg/mL) for 24 hours with or without the NU7441 inhibitor. Jurkat cells stimulated with the anti-CD28/CD3 dynabeads were done so according to the manufacturer's protocol at a 1:1 ratio for 24 hours prior to harvesting. After stimulation, supernatant samples of Jurkat cells or PBMCs (2 million cells/mL) were collected and diluted 10 times before the assay. IL-2 standards and samples (50 μL) and Biotinylated antibody reagents (50 μL) were added to each well and the plate was incubated for 3 hours at room temperature. The plate was washed 3 times and 100 μL of Streptavidin-HRP solution was added. After 30 minutes of incubation at room temperature, the plate was washed 3 times. TMB substrate (100 μL) was added and incubated for 30 minutes in the dark at room temperature. Stop solution was added and the absorbance of each well was read at 450 nm using the plate reader.

Th17 T cells = test: qPCR on T cell markers, Th17 differentiation of naïve CD4+ T cells; assay type: cell-based; details: naïve CD4+ T cells from mouse spleens
Method: as §1

calcineurin = test: Calcineurin Cellular Activity Assay in Jurkat cell lysates; assay type: cell-based, human; details: Jurkat activated with PMA+PHA, NU7441 2.5 µM
Source text: Detection of calcineurin and mTOR activities: Calcineurin phosphatase activity was detected by Calcineurin Cellular Activity Assay Kit from Millipore (Billerica, MA) and mTOR signaling was detected by Calcium Detection Kit from Abcam (Cambridge, MA). The manufacturer's protocols were followed. Briefly, Jurkat cells (2 million cells/mL) were lysed using lysis buffer. For calcineurin activity, the cell lysates were desalted by gel filtration to remove free phosphates before the assay and were subjected to calcineurin activity assay. The absorbance of each sample was read at 620 nm using the plate reader. For mTOR ELISA assay, the cell lysates were added to each well and antibody against phosphorylated mTOR at serine 2448 was used to detect the activity of mTOR signaling. The absorbance of each sample was read at 450 nm using the plate reader.

IL-2 [3] = test: Secreted IL-2 ELISA, Jurkat cells stimulated with PMA+PHA; assay type: cell-based, human; details: for level of IL-2: PMA+PHA 24 hour stimulation
Method: Cell Culture: Human peripheral blood mononuclear cells (PBMC,) and Jurkat cells were purchased from ATCC (PCS-800-011, Manassas, VA). Cells were maintained at 37° C. in a humidified atmosphere composed of 5% CO2. Jurkat cells were cultured in RPMI 1640 medium which was supplemented with 10% FCS and human PBMC was cultured in RPMI 1640 medium which was supplemented with 10% FCS and pen/strep. […] The NU7441 DNA-PKcs inhibitor was added at varying concentrations at the time of stimulation.
as §2, with “Prior to harvesting, cells were treated with PHA (50 ng/ml) and PMA (1 μg/mL) for 24 hours with or without the NU7441 inhibitor.” left out

`O=c1cc(N2CCOCC2)oc2c(-c3cccc4c3sc3ccccc34)cccc12` [NU7441] was tested, and the IL-2 expression (IL-2 [1]) was “reduced”, the “DNA-PKcs phosphorylation (s2056)” value (DNA-PKcs) was “effectively inhibited DNA-PKcs phosphorylation” and the “DNA-PKcs phosphorylation (s2056)” value (DNA-PKcs; listed as NU744) was “reduced”. The “concentration of Ca^2+ ions” value (Ca^2+) was “no change; also recorded: not affected”, the “Th1 differentiation (markers T-Bet, Lymphotoxin)” value (Th1 T cells) was “promoting the expression of Th1 T cells” and the “cellular viability of PBMC” value (PBMC) was “did not affect cellular viability; also recorded: does not reduce cell viability”. For the same molecule, the IL-2 production (IL-2 [2]) was “significantly blocked IL-2 production; also recorded: inhibited”, the “Th17 differentiation (markers Batf3, RoRyt, IL22, TGFBeta, IL17)” value (Th17 T cells) was “suppressing a Th17 environment” and the calcineurin phosphatase activity (calcineurin) was “significantly inhibited; also recorded: significant reduction in calcineurin activity”. For the same molecule, the IL-2 secretion (IL-2 [3]; PMA (50 ng/ml)+PHA (1 μg/mL), 24 hours, concentration not stated (FIG. 1B)) was “significantly blocked IL-2 secretion”, the “level of IL-2” value (IL-2 [3]; 2.5 µM NU7441) was “significantly decreased” and the “level of IL-2” value (IL-2 [3]; 5 μM NU7441) was “further decreased”.
